Results reported in patent US11691949B2, “Quinoline sulfonamide compounds and their use as antibacterial agents” (OTAGO INNOVATION LIMITED, priority 2017, dated 2023).
Converted amounts (≈) assume the structure as drawn. Counter-ions that a name gives are not always drawn. Like-named read-outs stand apart in the source and are kept apart here.

Assays:
Assay type in all cases: cell-based
[1] = test system: S. uberis ATCC 19436; test: MIC by broth microdilution, S. uberis; conditions: Streptococcus uberis
Procedure: (§1) Antibacterial susceptibility testing was performed in triplicate (biological) by measuring minimum inhibitory concentrations (MICs) by broth microdilution in 96-well flat bottom microtiter plates (ThermoFisher Scientific, New Zealand). S. uberis ATCC 19436, S. aureus ATCC 6538, or E. coli ATCC 10596 cells grown overnight were diluted to an OD600 of approximately 0.025, so that the final concentration of cells in the MIC assay was approximately 5×10^5 cfu/mL in media as follows: S. uberis; Todd Hewitt Broth (THB), S. aureus; Tryptic Soy Broth (TSB) and Cation Adjusted Muller Hinton Broth (CAMHB), and E. coli; Lysogeny Borth (LB) and CAMHB, before being dispensed into microtiter wells. As required additional sterile Zinc Sulphate (Heptahydrate) was supplemented into the media, so the final concentration was 50 μM. Test compounds were added to starting wells and two-fold serial dilutions were undertaken to generate a range of inhibitor concentrations at a final volume of 200 μl. Media and test compound-free (untreated) controls were included in each microtiter plate in triplicate. After 24 h incubation at 37° C. and 200 rpm, the OD600 of wells were read using a Varioskan Flash plate reader (ThermoFisher Scientific, New Zealand). The MIC was reported as the lowest concentration of the test compound for which no growth occurred, as determined by OD600 readings. The minimum bactericidal concentration (MBC) was determined using the Miles-Misra drop-plate method to measure the viability of cells in response to test compound challenge.

[2] = test system: E. coli ATCC 10596; test: MIC by broth microdilution, E. coli; conditions: Escherichia coli
Procedure: as §1

[3] = test system: S. aureus ATCC 6538; test: MIC by broth microdilution, S. aureus; conditions: Staphylococcus aureus
Procedure: as §1

[4] = ATCC19436, No Zinc, read-out: S. uberis ATCC 19436 MIC
[5] = ATCC19436, Zinc (50 μM), read-out: S. uberis ATCC 19436 MIC
[6] = ATCC 10536 / ATCC 10596, No Zinc, read-out: E. coli ATCC 10536 MIC
[7] = ATCC 10536 / ATCC 10596, Zinc (50 μM), read-out: E. coli ATCC 10536 MIC
[8] = ATCC6538, No Zinc, read-out: S. aureus ATCC 6538 MIC
[9] = ATCC6538, Zinc (50 μM), read-out: S. aureus ATCC 6538 MIC

O=C(O)CNCc1ccc2cccc(NS(=O)(=O)c3ccc(C(F)(F)F)cc3)c2n1 [ZDR043, N-(2-(((Carboxymethyl)amino)methyl)quinolin-8-yl)-4-(trifluoromethyl)benzenesulfonamide trifluoroacetate]
MIC ([1]; ATCC19436, read-out: S. uberis ATCC 19436 MIC, No Zinc): > 256 µg/mL
MIC ([1]; ATCC19436, read-out: S. uberis ATCC 19436 MIC, Zinc (50 μM)): > 256 µg/mL
MIC ([2]; ATCC 10536 / ATCC 10596, read-out: E. coli ATCC 10536 MIC, No Zinc): > 256 µg/mL
MIC ([2]; ATCC 10536 / ATCC 10596, read-out: E. coli ATCC 10536 MIC, Zinc (50 μM)): > 256 µg/mL
MIC ([3]; ATCC6538, read-out: S. aureus ATCC 6538 MIC, No Zinc): > 256 µg/mL
MIC ([3]; ATCC6538, read-out: S. aureus ATCC 6538 MIC, Zinc (50 μM)): > 256 µg/mL

O=C(N/N=C/c1ccc2cccc(NS(=O)(=O)c3ccc(C(F)(F)F)cc3)c2n1)c1ccccc1 [ZDR045, (E)-N-(2-((2-Benzoylhydrazono)methyl)quinolin-8-yl)-4-(trifluoromethyl)benzenesulfonamide]
MIC [1, 4]: > 256 µg/mL
MIC [1, 5]: 0.125 µg/mL (≈ 0.251 µM)
MIC [2, 6]: > 256 µg/mL
MIC [2, 7]: > 256 µg/mL
MIC [3, 8]: > 256 µg/mL
MIC [3, 9]: > 256 µg/mL

NC(=S)N/N=C/c1ccc2cccc(NS(=O)(=O)c3ccc(C(F)(F)F)cc3)c2n1 [ZDR046, (E)-2-((8-((4-(Trifluoromethyl)phenyl)sulfonamido)quinolin-2-yl)methylene)hydrazine-1-carbothioamide]
MIC [1, 4]: 4 µg/mL (≈ 8.82 µM)
MIC [1, 5]: 1 µg/mL (≈ 2.21 µM)
MIC [2, 6]: > 256 µg/mL
MIC [2, 7]: > 256 µg/mL
MIC [3, 8]: 4 µg/mL (≈ 8.82 µM)
MIC [3, 9]: 4 µg/mL (≈ 8.82 µM)

CN(C)Cc1ccc2cccc(NS(=O)(=O)c3ccccc3)c2n1 [ZDR061, N-(2-((Dimethylamino)methyl)quinolin-8-yl)benzenesulfonamide]
MIC [1, 4]: > 256 µg/mL
MIC [1, 5]: 0.25 µg/mL (≈ 0.732 µM)
MIC [2, 6]: > 256 µg/mL
MIC [2, 7]: > 256 µg/mL
MIC [3, 8]: > 256 µg/mL
MIC [3, 9]: 256 µg/mL (≈ 750 µM)

Cc1ccc(S(=O)(=O)Nc2cccc3ccc(CN(C)C)nc23)cc1 [ZDR062, N-(2-((Dimethylamino)methyl)quinolin-8-yl)-4-methylbenzenesulfonamide]
MIC [1, 4]: 256 µg/mL (≈ 720 µM)
MIC [1, 5]: 0.25 µg/mL (≈ 0.703 µM)
MIC [2, 6]: > 256 µg/mL
MIC [2, 7]: > 256 µg/mL
MIC [3, 8]: 256 µg/mL (≈ 720 µM)
MIC [3, 9]: > 256 µg/mL

COc1ccc(S(=O)(=O)Nc2cccc3ccc(CN(C)C)nc23)cc1 [ZDR063, N-(2-((Dimethylamino)methyl)quinolin-8-yl)-4-methoxybenzenesulfonamide]
MIC [1, 4]: > 256 µg/mL
MIC [1, 5]: 0.25 µg/mL (≈ 0.673 µM)
MIC [2, 6]: > 256 µg/mL
MIC [2, 7]: > 256 µg/mL
MIC [3, 8]: > 256 µg/mL
MIC [3, 9]: > 256 µg/mL

CN(C)Cc1ccc2cccc(NS(=O)(=O)c3ccc(Cl)cc3)c2n1 [ZDR064, 4-Chloro-N-(2-((dimethylamino)methyl)quinolin-8-yl)benzenesulfonamide]
MIC [1, 4]: > 256 µg/mL
MIC [1, 5]: 0.0625 µg/mL (≈ 0.166 µM)
MIC [2, 6]: > 256 µg/mL
MIC [2, 7]: > 256 µg/mL
MIC [3, 8]: 128 µg/mL (≈ 341 µM)
MIC [3, 9]: 256 µg/mL (≈ 681 µM)

CN(C)Cc1ccc2cccc(NS(=O)(=O)c3ccc(F)cc3)c2n1 [ZDR065, N-(2-((Dimethylamino)methyl)quinolin-8-yl)-4-fluorobenzenesulfonamide]
MIC [1, 4]: > 256 µg/mL
MIC [1, 5]: 0.125 µg/mL (≈ 0.348 µM)
MIC [2, 6]: > 256 µg/mL
MIC [2, 7]: > 256 µg/mL
MIC [3, 8]: 256 µg/mL (≈ 712 µM)
MIC [3, 9]: 256 µg/mL (≈ 712 µM)

CN(C)Cc1ccc2cccc(NS(=O)(=O)c3ccc(OC(F)(F)F)cc3)c2n1 [ZDR066, N-(2-((Dimethylamino)methyl)quinolin-8-yl)-4-(trifluoromethoxy)benzenesulfonamide]
MIC [1, 4]: 128 µg/mL (≈ 301 µM)
MIC [1, 5]: 0.0625 µg/mL (≈ 0.147 µM)
MIC [2, 6]: > 256 µg/mL
MIC [2, 7]: > 256 µg/mL
MIC [3, 8]: 256 µg/mL (≈ 602 µM)
MIC [3, 9]: > 256 µg/mL

CN(C)Cc1ccc2cccc(NS(=O)(=O)c3ccc([N+](=O)[O-])cc3)c2n1 [ZDR067, N-(2-((Dimethylamino)methyl)quinolin-8-yl)-4-nitrobenzenesulfonamide]
MIC [1, 4]: 128 µg/mL (≈ 331 µM)
MIC [1, 5]: 0.125 µg/mL (≈ 0.323 µM)
MIC [2, 6]: > 256 µg/mL
MIC [2, 7]: > 256 µg/mL
MIC [3, 8]: 128 µg/mL (≈ 331 µM)
MIC [3, 9]: 256 µg/mL (≈ 662 µM)

CN(C)Cc1ccc2cccc(NS(=O)(=O)c3ccc(C#N)cc3)c2n1 [ZDR068, 4-Cyano-N-(2-((dimethylamino)methyl)quinolin-8-yl)benzenesulfonamide]
MIC [1, 4]: > 256 µg/mL
MIC [1, 5]: 1 µg/mL (≈ 2.73 µM)
MIC [2, 6]: > 256 µg/mL
MIC [2, 7]: > 256 µg/mL
MIC [3, 8]: > 256 µg/mL
MIC [3, 9]: > 256 µg/mL

COC(=O)c1ccc(S(=O)(=O)Nc2cccc3ccc(CN(C)C)nc23)cc1 [ZDR069, Methyl 4-(N-(2-((dimethylamino)methyl)quinolin-8-yl)sulfamoyl)benzoate]
MIC [1, 4]: > 256 µg/mL
MIC [1, 5]: 0.25 µg/mL (≈ 0.626 µM)
MIC [2, 6]: > 256 µg/mL
MIC [2, 7]: > 256 µg/mL
MIC [3, 8]: 256 µg/mL (≈ 641 µM)
MIC [3, 9]: > 256 µg/mL

CC(=O)c1ccc(S(=O)(=O)Nc2cccc3ccc(CN(C)C)nc23)cc1 [ZDR070, 4-Acetyl-N-(2-((dimethylamino)methyl)quinolin-8-yl)benzenesulfonamide]
MIC [1, 4]: > 256 µg/mL
MIC [1, 5]: 0.5 µg/mL (≈ 1.3 µM)
MIC [2, 6]: > 256 µg/mL
MIC [2, 7]: > 256 µg/mL
MIC [3, 8]: > 256 µg/mL
MIC [3, 9]: > 256 µg/mL

CN(C)Cc1ccc2cccc(NS(=O)(=O)c3ccc(S(C)(=O)=O)cc3)c2n1 [ZDR071, N-(2-((Dimethylamino)methyl)quinolin-8-yl)-4-(methylsulfonyl)benzenesulfonamide]
MIC [1, 4]: > 256 µg/mL
MIC [1, 5]: 4 µg/mL (≈ 9.53 µM)
MIC [2, 6]: > 256 µg/mL
MIC [2, 7]: > 256 µg/mL
MIC [3, 8]: > 256 µg/mL
MIC [3, 9]: > 256 µg/mL

CC(=O)Nc1ccc(S(=O)(=O)Nc2cccc3ccc(CN(C)C)nc23)cc1 [ZDR072, N-(4-(N-(2-((Dimethylamino)methyl)quinolin-8-yl)sulfamoyl)phenyl)acetamide]
MIC [1, 4]: 256 µg/mL (≈ 642 µM)
MIC [1, 5]: 32 µg/mL (≈ 80.3 µM)
MIC [2, 6]: > 256 µg/mL
MIC [2, 7]: > 256 µg/mL
MIC [3, 8]: > 256 µg/mL
MIC [3, 9]: > 256 µg/mL

CN(C)Cc1ccc2cccc(NS(=O)(=O)c3ccc(C(N)=O)cc3)c2n1 [ZDR073, 4-(N-(2-((Dimethylamino)methyl)quinolin-8-yl)sulfamoyl)benzamide]
MIC [1, 4]: > 256 µg/mL
MIC [1, 5]: 8 µg/mL (≈ 20.8 µM)
MIC [2, 6]: > 256 µg/mL
MIC [2, 7]: > 256 µg/mL
MIC [3, 8]: > 256 µg/mL
MIC [3, 9]: > 256 µg/mL

CN(C)Cc1ccc2cccc(NS(=O)(=O)c3cccc(C(F)(F)F)c3)c2n1 [ZDR074, N-(2-((Dimethylamino)methyl)quinolin-8-yl)-3-(trifluoromethyl)benzenesulfonamide]
MIC [1, 4]: > 256 µg/mL
MIC [1, 5]: 0.0625 µg/mL (≈ 0.153 µM)
MIC [2, 6]: 256 µg/mL (≈ 625 µM)
MIC [2, 7]: 256 µg/mL (≈ 625 µM)
MIC [3, 8]: > 256 µg/mL
MIC [3, 9]: > 256 µg/mL

CN(C)Cc1ccc2cccc(NS(=O)(=O)c3ccccc3C(F)(F)F)c2n1 [ZDR075, N-(2-((Dimethylamino)methyl)quinolin-8-yl)-2-(trifluoromethyl)benzenesulfonamide]
MIC [1, 4]: 256 µg/mL (≈ 625 µM)
MIC [1, 5]: 0.125 µg/mL (≈ 0.305 µM)
MIC [2, 6]: > 256 µg/mL
MIC [2, 7]: > 256 µg/mL
MIC [3, 8]: > 256 µg/mL
MIC [3, 9]: > 256 µg/mL

CN(C)Cc1ccc2cccc(NS(=O)(=O)c3cccc(C#N)c3)c2n1 [ZDR076, 3-cyano-N-(2-((dimethylamino)methyl)quinolin-8-yl)benzenesulfonamide]
MIC [1, 4]: > 256 µg/mL
MIC [1, 5]: 1 µg/mL (≈ 2.73 µM)
MIC [2, 6]: > 256 µg/mL
MIC [2, 7]: > 256 µg/mL
MIC [3, 8]: > 256 µg/mL
MIC [3, 9]: > 256 µg/mL

CN(C)Cc1ccc2cccc(NS(=O)(=O)c3ccccc3C#N)c2n1 [ZDR077, N-(2-((Dimethylamino)methyl)quinolin-8-yl)-2-cyanobenzenesulfonamide]
MIC [1, 4]: > 256 µg/mL
MIC [1, 5]: 1 µg/mL (≈ 2.73 µM)
MIC [2, 6]: > 256 µg/mL
MIC [2, 7]: > 256 µg/mL
MIC [3, 8]: > 256 µg/mL
MIC [3, 9]: > 256 µg/mL

CN(C)Cc1ccc2cccc(NS(C)(=O)=O)c2n1 [ZDR078, N-(2-((Dimethylamino)methyl)quinolin-8-yl)methanesulfonamide]
MIC [1, 4]: > 256 µg/mL
MIC [1, 5]: 2 µg/mL (≈ 7.16 µM)
MIC [2, 6]: > 256 µg/mL
MIC [2, 7]: > 256 µg/mL
MIC [3, 8]: > 256 µg/mL
MIC [3, 9]: > 256 µg/mL

CN(C)Cc1ccc2cccc(NS(=O)(=O)C(F)(F)F)c2n1 [ZDR079, N-(2-((Dimethylamino)methyl)quinolin-8-yl)-1,1,1-trifluoromethanesulfonamide]
MIC [1, 4]: > 256 µg/mL
MIC [1, 5]: 0.5 µg/mL (≈ 1.5 µM)
MIC [2, 6]: > 256 µg/mL
MIC [2, 7]: 64 µg/mL (≈ 192 µM)
MIC [3, 8]: > 256 µg/mL
MIC [3, 9]: 256 µg/mL (≈ 768 µM)

CN(C)Cc1ccc2cccc(NS(=O)(=O)c3cccs3)c2n1 [ZDR080, N-(2-((Dimethylamino)methyl)quinolin-8-yl)thiophene-2-sulfonamide]
MIC [1, 4]: > 256 µg/mL
MIC [1, 5]: 0.25 µg/mL (≈ 0.719 µM)
MIC [2, 6]: > 256 µg/mL
MIC [2, 7]: > 256 µg/mL
MIC [3, 8]: > 256 µg/mL
MIC [3, 9]: > 256 µg/mL
